Tests used:
[1] = biological target: GDP-bound NRAS wild-type protein (Homo sapiens, UniProt P01111); experiment: Binding to NRAS by surface plasmon resonance (SPR), Single Cycle Kinetics; settings: SPR, GDP-bound NRAS wild-type vs GDP-bound KRAS wild-type
[2] = biological target: GDP-bound HRAS wild-type protein (Homo sapiens, UniProt P01112); experiment: Binding to HRAS by surface plasmon resonance (SPR), Single Cycle Kinetics; settings: SPR, GDP-bound HRAS wild-type vs GDP-bound KRAS wild-type
Sequence of GDP-bound HRAS wild-type protein (P01112 whole entry): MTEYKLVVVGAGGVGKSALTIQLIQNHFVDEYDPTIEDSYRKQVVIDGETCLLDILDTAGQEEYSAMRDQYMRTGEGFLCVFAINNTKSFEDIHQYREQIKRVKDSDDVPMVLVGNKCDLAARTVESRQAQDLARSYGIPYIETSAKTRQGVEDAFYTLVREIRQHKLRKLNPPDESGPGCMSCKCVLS

Sequence of GDP-bound NRAS wild-type protein (P01111 whole entry): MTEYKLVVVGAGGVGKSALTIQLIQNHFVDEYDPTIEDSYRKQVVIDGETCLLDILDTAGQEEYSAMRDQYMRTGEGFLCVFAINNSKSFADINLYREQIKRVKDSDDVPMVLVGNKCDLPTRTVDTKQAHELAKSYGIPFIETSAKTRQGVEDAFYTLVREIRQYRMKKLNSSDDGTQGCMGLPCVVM

Row | SMILES | NRAS/KRAS (ratio of KD value with respect to NRAS to KD value with respect to KRAS) [1] | HRAS/KRAS (ratio of KD value with respect to HRAS to KD value with respect to KRAS) [2]
1 | CCC[C@H]1C(=O)N[C@@H]([C@H](C)CC)C(=O)N(C)CC(=O)N(C)[C@H]2C/C=C\CCN(C2=O)[C@@H](Cc2ccc(C)cc2)C(=O)N(C)CC(=O)N[C@@H](CCc2ccc(C(F)(F)F)c(Cl)c2)C(=O)N2C[C@H](OCC)C[C@H]2C(=O)NC2(CC(C)(C)C2)C(=O)N(C)[C@@H](C2CCCC2)C(=O)N(C)[C@H](C(=O)N(C)C)CC(=O)N1C [PP2221] | A (a compound having 10 or more and less than 20 is denoted as A) | A (a compound having 10 or more and less than 20 is denoted as A)
2 | CC[C@H](C)[C@@H]1NC(=O)[C@H](CC(C)C)N(C)C(=O)C[C@@H](C(=O)N(C)C)N(C)C(=O)[C@H](C2CCCC2)N(C)C(=O)C2(CC(C)(C)C2)NC(=O)[C@@H]2C[C@@H](C)CN2C(=O)[C@H](CCc2cc(F)c(C(F)(F)F)c(F)c2)NC(=O)CN(C)C(=O)[C@H](Cc2ccc(C)cc2)N2CC/C=C\C[C@@H](C2=O)N(C)C(=O)CN(C)C1=O [PP2223] | A (a compound having 10 or more and less than 20 is denoted as A) | A (a compound having 10 or more and less than 20 is denoted as A)
3 | CCC[C@H]1C(=O)N[C@@H]([C@@H](C)CC)C(=O)N(C)CC(=O)N(C)[C@H]2C/C=C\CCN(C2=O)[C@@H](Cc2ccc(C)cc2)C(=O)N(C)CC(=O)N[C@@H](CCc2ccc(C(F)(F)F)c(Cl)c2)C(=O)N2C[C@H](OCC)C[C@H]2C(=O)NC2(CC(C)(C)C2)C(=O)N(C)[C@@H](CC(C)C)C(=O)N(C)[C@H](C(=O)N(C)C)CC(=O)N1C [PP2224] | A (a compound having 10 or more and less than 20 is denoted as A) | A (a compound having 10 or more and less than 20 is denoted as A)
4 | CCCOC[C@H]1C(=O)N[C@@H]([C@@H](C)CC)C(=O)N(C)CC(=O)N(C)[C@H]2C/C=C\CCN(C2=O)[C@@H](Cc2ccc(C)cc2)C(=O)N(C)CC(=O)N[C@@H](CCc2cc(F)c(C(F)(F)F)c(F)c2)C(=O)N2C[C@H](C)C[C@H]2C(=O)NC2(CCCC2)C(=O)N(C)[C@@H](C2CCCC2)C(=O)N(C)[C@H](C(=O)N(C)C)CC(=O)N1C [PP2225] | A (a compound having 10 or more and less than 20 is denoted as A) | A (a compound having 10 or more and less than 20 is denoted as A)
5 | CCC[C@H]1C(=O)N[C@@H]([C@@H](C)CC)C(=O)N(C)CC(=O)N(C)[C@H]2C/C=C\CCN(C2=O)[C@@H](Cc2ccc(C)cc2)C(=O)N(C)CC(=O)N[C@@H](CCc2ccc(C(F)(F)F)c(Cl)c2)C(=O)N2C[C@H](OCC)C[C@H]2C(=O)NC2(CC(C)(C)C2)C(=O)N(C)[C@@H](CC(F)(F)F)C(=O)N(C)[C@H](C(=O)N(C)C)CC(=O)N1C [PP2226] | A (a compound having 10 or more and less than 20 is denoted as A) | A (a compound having 10 or more and less than 20 is denoted as A)
6 | CCC[C@@H]1C[C@H]2C(=O)NC3(CCCC3)C(=O)N(C)[C@@H](C3CCCC3)C(=O)N(C)[C@H](C(=O)N(C)C)CC(=O)N(C)[C@@H](CC)C(=O)N[C@@H]([C@@H](C)CC)C(=O)N(C)CC(=O)N(C)[C@H]3C/C=C\CCN(C3=O)[C@@H](Cc3ccc(C)cc3)C(=O)N(C)CC(=O)N[C@@H](CCc3cc(F)c(C(F)(F)F)c(F)c3)C(=O)N2C1 [PP2227] | A (a compound having 10 or more and less than 20 is denoted as A) | A (a compound having 10 or more and less than 20 is denoted as A)
7 | CCCOC[C@H]1C(=O)N[C@@H]([C@@H](C)CC)C(=O)N(C)CC(=O)N(C)[C@H]2C/C=C\CCN(C2=O)[C@@H](Cc2ccc(C)cc2)C(=O)N(C)CC(=O)N[C@@H](CCc2cc(F)c(C(F)(F)F)c(F)c2)C(=O)N2C[C@H](CCC)C[C@H]2C(=O)NC2(CCCC2)C(=O)N(C)[C@@H](C2CCCC2)C(=O)N(C)[C@H](C(=O)N(C)C)CC(=O)N1C [PP2229] | A (a compound having 10 or more and less than 20 is denoted as A) | A (a compound having 10 or more and less than 20 is denoted as A)
8 | CCC[C@H]1C(=O)N[C@@H]([C@@H](C)CC)C(=O)N(C)CC(=O)N(C)[C@H]2C/C=C\CCN(C2=O)[C@@H](Cc2ccc(C)cc2)C(=O)N(C)CC(=O)N[C@@H](CCc2ccc(C(F)(F)F)c(Cl)c2)C(=O)N2C[C@H](OCC)C[C@H]2C(=O)NC2(CC(C)(C)C2)C(=O)N(C)[C@@H](CC(C)(C)C)C(=O)N(C)[C@H](C(=O)N(C)C)CC(=O)N1C [PP2230] | A (a compound having 10 or more and less than 20 is denoted as A) | A (a compound having 10 or more and less than 20 is denoted as A)
9 | CCC[C@@H]1C[C@H]2C(=O)NC3(CCC3)C(=O)N(C)[C@@H](C3CCCC3)C(=O)N(C)[C@H](C(=O)N(C)C)CC(=O)N(C)[C@@H](CC(C)C)C(=O)N[C@@H]([C@@H](C)CC)C(=O)N(C)CC(=O)N(C)[C@H]3C/C=C\CCN(C3=O)[C@@H](Cc3ccc(C)cc3)C(=O)N(C)CC(=O)N[C@@H](CCc3cc(F)c(C(F)(F)F)c(F)c3)C(=O)N2C1 [PP2231] | A (a compound having 10 or more and less than 20 is denoted as A) | B (a compound having 3 or more and less than 10 is denoted as B)
10 | CCCOC[C@H]1C(=O)N[C@@H]([C@@H](C)CC)C(=O)N(C)CC(=O)N(C)[C@H]2C/C=C\CCN(C2=O)[C@@H](Cc2ccc(C)cc2)C(=O)N(C)CC(=O)N[C@@H](CCc2cc(F)c(C(F)(F)F)c(F)c2)C(=O)N2C[C@H](CCC)C[C@H]2C(=O)NC2(CCC2)C(=O)N(C)[C@@H](C2CCCC2)C(=O)N(C)[C@H](C(=O)N(C)C)CC(=O)N1C [PP2232] | A (a compound having 10 or more and less than 20 is denoted as A) | A (a compound having 10 or more and less than 20 is denoted as A)
11 | CCC[C@@H]1C[C@H]2C(=O)NC3(CCC3)C(=O)N(C)[C@@H](C3CCCC3)C(=O)N(C)[C@H](C(=O)N(C)C)CC(=O)N(C)[C@@H](CC)C(=O)N[C@@H]([C@@H](C)CC)C(=O)N(C)CC(=O)N(C)[C@H]3C/C=C\CCN(C3=O)[C@@H](Cc3ccc(C)cc3)C(=O)N(C)CC(=O)N[C@@H](CCc3cc(F)c(C(F)(F)F)c(F)c3)C(=O)N2C1 [PP2233] | A (a compound having 10 or more and less than 20 is denoted as A) | A (a compound having 10 or more and less than 20 is denoted as A)
12 | CCCOC[C@H]1C(=O)N[C@@H]([C@@H](C)CC)C(=O)N(C)CC(=O)N(C)[C@H]2C/C=C\CCN(C2=O)[C@@H](Cc2ccc(C)cc2)C(=O)N(C)CC(=O)N[C@@H](CCc2ccc(C(F)(F)F)c(Cl)c2)C(=O)N2C[C@H](C)C[C@H]2C(=O)NC2(CC(C)(C)C2)C(=O)N(C)[C@@H](C2CCCC2)C(=O)N(C)[C@H](C(=O)N(C)C)CC(=O)N1C [PP2234] | A (a compound having 10 or more and less than 20 is denoted as A) | A (a compound having 10 or more and less than 20 is denoted as A)
13 | CCCOC[C@H]1C(=O)N[C@@H]([C@@H](C)CC)C(=O)N(C)CC(=O)N(C)[C@H]2C/C=C\CCN(C2=O)[C@@H](Cc2ccc(C)cc2)C(=O)N(C)CC(=O)N[C@@H](CCc2ccc(C(F)(F)F)c(Cl)c2)C(=O)N2C[C@H](CC)C[C@H]2C(=O)NC2(CC(C)(C)C2)C(=O)N(C)[C@@H](C2CCCC2)C(=O)N(C)[C@H](C(=O)N(C)C)CC(=O)N1C [PP2235] | A (a compound having 10 or more and less than 20 is denoted as A) | A (a compound having 10 or more and less than 20 is denoted as A)
14 | CCC[C@H]1C(=O)N[C@@H]([C@@H](C)CC)C(=O)N(C)CC(=O)N(C)[C@H]2C/C=C\CCN(C2=O)[C@@H](Cc2ccc(C)cc2)C(=O)N(C)CC(=O)N[C@@H](CCc2ccc(C(F)(F)F)c(Cl)c2)C(=O)N2C[C@H](CC)C[C@H]2C(=O)NC2(CCC2)C(=O)N(C)[C@@H](C2CCCC2)C(=O)N(C)[C@H](C(=O)N(C)C)CC(=O)N1C [PP2237] | A (a compound having 10 or more and less than 20 is denoted as A) | A (a compound having 10 or more and less than 20 is denoted as A)
15 | CCC[C@@H]1C[C@H]2C(=O)NC3(CCC3)C(=O)N(C)[C@@H](C3CCCC3)C(=O)N(C)[C@H](C(=O)N(C)C)CC(=O)N(C)[C@@H](CCC)C(=O)N[C@@H]([C@@H](C)CC)C(=O)N(C)CC(=O)N(C)[C@H]3C/C=C\CCN(C3=O)[C@@H](Cc3ccc(C)cc3)C(=O)N(C)CC(=O)N[C@@H](CCc3ccc(C(F)(F)F)c(Cl)c3)C(=O)N2C1 [PP2238] | A (a compound having 10 or more and less than 20 is denoted as A) | A (a compound having 10 or more and less than 20 is denoted as A)
16 | CCC[C@H]1C(=O)N[C@@H](C2CCC2)C(=O)N(C)CC(=O)N(C)[C@H]2C/C=C\CCN(C2=O)[C@@H](Cc2ccc(C)cc2)C(=O)N(C)CC(=O)N[C@@H](CCc2ccc(C(F)(F)F)c(F)c2)C(=O)N2C[C@H](OCC)C[C@H]2C(=O)NC2(CC(C)(C)C2)C(=O)N(C)[C@@H](C2CCC2)C(=O)N(C)[C@H](C(=O)N(C)C)CC(=O)N1C [PP2242] | A (a compound having 10 or more and less than 20 is denoted as A) | A (a compound having 10 or more and less than 20 is denoted as A)

— patent US20250230193A1, “CYCLIC COMPOUND HAVING SELECTIVE KRAS INHIBITORY EFFECT ON HRAS AND NRAS” (CHUGAI SEIYAKU KABUSHIKI KAISHA, priority 2022, published 2025)
